Reference: patent publication US10441537B2, “Unit doses, aerosols, kits, and methods for treating heart conditions by pulmonary administration” (InCarda Therapeutics, Inc., priority 2017, dated 2019)

Legend:
[1] = Plasma concentrations in LV, femoral vein and pulmonary artery of dogs (Example 7); assay type: in vivo
[2] = test system: induced atrial fibrillation; assay: Conversion of ACh/burst-pacing-induced AF in intact porcine model (Example 6); assay type: in vivo, pigs
Description: After 30-min recovery, the alternate intervention was tested. Times for conversion to normal sinus rhythm were compared.

[3] = test system: induced atrial fibrillation; assay: ACh and burst-pacing-induced AF duration in pigs (Example 5); assay type: in vivo; conditions: IT 1.5 mg/kg
Description: At one min after intrapericardial administration of ACh (1 ml of 100 mM), burst pacing was performed to initiate AF in the control cohort (FIG. 60). In the experimental cohort, after ACh and burst-pacing-induced AF, a stable period of 2 min of AF was allowed (FIG. 60). […] Table 12; FIG. 61).

[4] = test system: healthy volunteers; assay: Phase 1 study: peripheral oxygen saturation (SpO2%); assay type: in vivo, human; conditions: for Oxygen Saturation (SpO2%), Mean: Predose
Description: (§1) Pulmonary safety was assessed by performing lung spirometry tests and measuring peripheral oxygen saturation (SpO2%) prior to dosing and at various times after completion of the inhalation. Lung spirometry tests evaluated all lung function parameters, including forced vital capacity (FVC), forced expiratory volume in 1 second (FEV1), peak expiratory flow (PEF), and forced expiratory flow at 25% and 75% intervals (FEF25-75). Auscultation and respiration rate were also measured prior to dosing and at various times after inhalation. Chest x-rays were performed on subjects before and after flecainide inhalation.

[5] = test system: healthy volunteers; assay: Phase 1 study: auscultation, respiration rate, chest x-rays; assay type: in vivo, human
Description: as §1

[6] = IV 2 mg/Kg, n=3, package insert; cited from earlier work
[7] = test system: healthy volunteers; conditions: in vivo, iv
Description: 3 cohorts of subjects, in total 34 healthy adult volunteers, were recruited for Part A study.
Part B was an open label non-randomized crossover in a cohort of 6 evaluable healthy adult volunteers.
In addition, the effects of changing posture from semi-recumbent to seated upright, vice-versa and during inhalation on HR and BP were assessed (Cohort 5).

[8] = test system: anesthetized Yorkshire pigs; assay: PD responses (HR, MAP, ECG intervals) in anesthetized Yorkshire pigs, IV vs IT; assay type: in vivo
Description: All catheters were positioned under fluoroscopic guidance. […] Data are reported as means+ SEM. Statistical analyses were performed using the SAS system (9.4) to apply ANOVA with a post-hoc Dunnett's test. Statistical significance was assumed at p<0.05.

[9] = test system: healthy volunteers; assay: Phase 1 study: lung spirometry tests; assay type: in vivo, human
Description: as §1

[10] = physchem; conditions: water
[11] = test system: induced atrial fibrillation; assay: Conversion of phenylephrine/burst-pacing-induced AF in anesthetized beagle dogs (Example 7); assay type: in vivo; conditions: for Time to NSR: IT
Description: The study was carried out in anesthetized healthy adult beagle dogs with induced AF. Acute AF was induced using the combination of phenylephrine ([…]), to increase heterogeneity of atrial refractory periods via increased loading and through a baroreceptor-mediated increase in parasympathetic efferent activity, and right atrial burst pacing (40-50 Hz for ˜15 min). The AF induced using this method was, in general, stable for more than 30 mins.
The cardiac rhythm was monitored prior to, during AF, and up to 10 min post-dosing and/or until conversion to NSR.

[12] = test system: healthy volunteers; assay: Phase 1 study: ECG pharmacodynamics (QRS, PR, QTcF, T-wave) and PK-PD; assay type: in vivo, human
Description: The ECG recordings included: 1) Continuous real-time ECG telemetry for observation of patient safety starting at 12 hours pre-dose and continuing for 12 hours post-dose, 2) 12-lead ECGs for immediate review by medical staff to ascertain the safety of the procedures and drug administration were recorded at pre-specified (or any time as needed) before dosing (pre-dose) and after dosing (post-dose), and 3) continuous 12-lead ECG (cECG, iCardiac Holter monitoring) was recorded for 24 hours, starting 1 hour prior to dosing and up to 24 hours post dosing.
As expected from non-steady state conditions, and shown in FIGS. 84A and 84B, a temporal dissociation is observed between ([Flec]plasma) and ΔQRS. […] The hysteresis between concentrations and responses (QRS) applies for both routes of administration, IV and inhalation.

[13] = before and after inhalation of 20, 30, 40 mg eTLD

O=C(NCC1CCCCN1)c1cc(OCC(F)(F)F)ccc1OCC(F)(F)F (centres unmarked) [flecainide, flecainide acetate]
plasma concentrations transiently higher in the LV than in the PA (summary) ([1]; IT): ~2.5 fold | plasma levels higher in the LV than in the systemic venous circulation ([1]; IT, at the time of conversion): ~2 fold | plasma concentrations transiently higher in the PA than in the LV (summary) ([1]; IV infusion): ~3.5 fold | time after administration at which LV and PA concentrations were nearly equal ([1]; IV or IT): 4 to 10 min | time within which plasma concentration reached levels required for conversion ([2]; IT 0.75 mg/kg and 1.5 mg/kg (FIG. 66A)): ≤ 10 min | dominant frequency of AF ([2]; IT 0.75 mg/kg and 1.5 mg/kg (FIG. 67)): reduced the dominant frequency of AF | AF conversion in representative electrograms ([2]; IT 1.5 mg/kg (FIG. 65)): 5 min | MAP and ventricular rate after conversion ([2]; IT 1.5 mg/kg or 0.75 mg/kg): restored MAP and ventricular rate to baseline values | recurrence of AF after restoration of sinus rhythm ([3]; 30-min window of observation): no recurrence of AF occurred | AF duration ([3]; Pig 236 (No drug 10)): 4 min | AF duration ([3]; Pig 238 (No drug 12)): 3 min | AF duration ([3]; Pig 239 (No drug 12)): 3 min | SpO2%, Mean ([4]; 20 mg eTLD, 15 min Postdose): 97% | SpO2%, Mean ([4]; 20 mg eTLD, 30 min Postdose): 97% | SpO2%, Mean ([4]; 20 mg eTLD, 45 min Postdose): 97% | SpO2%, Mean ([4]; 20 mg eTLD, 60 min Postdose): 97% | SpO2%, Mean ([4]; 20 mg eTLD, 75 min Postdose): 98% | SpO2%, Mean ([4]; 20 mg eTLD, 90 min Postdose): 98% | SpO2%, Mean ([4]; 20 mg eTLD, 105 min Postdose): 97% | SpO2%, Mean ([4]; 20 mg eTLD, 120 min Postdose): 98% | SpO2%, Mean ([4]; 40 mg eTLD, 15 min Postdose): 96% | SpO2%, Mean ([4]; 40 mg eTLD, 30 min Postdose): 97% | SpO2%, Mean ([4]; 40 mg eTLD, 45 min Postdose): 96% | SpO2%, Mean ([4]; 40 mg eTLD, 60 min Postdose): 96% | SpO2%, Mean ([4]; 40 mg eTLD, 75 min Postdose): 97% | SpO2%, Mean ([4]; 40 mg eTLD, 90 min Postdose): 97% | SpO2%, Mean ([4]; 40 mg eTLD, 105 min Postdose): 97% | SpO2%, Mean ([4]; 40 mg eTLD, 120 min Postdose): 97% | pre-dose and post-dose values for SpO2 (normal range) ([4]; Cohorts 1 and 2): 97-98% | Oxygen Saturation (SpO2%), Mean ([4]; inhaled 20 mg eTLD, Cohort 1 (n=6)): 98% | Oxygen Saturation (SpO2%), Mean ([4]; inhaled 40 mg eTLD, Cohort 2 (n=10)): 97% | respiratory rate ([5]; Cohorts 1, 2, 3 and 5): minimal or no changes in respiratory rate | Auscultation [5, 13]: normal in all subjects | Chest x-rays [5, 13]: normal and showed no changes | respiration rate [5, 13]: No changes in respiration rate | Tmax [6]: 10.0 min after EOI | decrease in systolic pressure [7]: ≤ 18 mmHg | maximal increase in HR [7]: 7 bpm | transient decrease in systolic pressure [7]: 9 mmHg | HR ([7]; 2 mg/kg): An increase in HR was observed | systolic and diastolic BP ([7]; 2 mg/kg): Decreases in systolic and diastolic BP were observed | mean arterial pressure ([8]; IT 0.75 mg/kg, baseline 111±3.6 mmHg, p=0.9112): not significantly altered | heart rate ([8]; IT 0.75 mg/kg, baseline 111±6.4 bpm, p=0.9970): not significantly altered | PR interval ([8]; IT 0.75 mg/kg, baseline 130±5.3 ms, p=0.9351): not significantly changed | JTc interval ([8]; IT 0.75 mg/kg, baseline 354±12.0 ms, p=0.7605): not significantly changed | QTc interval ([8]; IT 0.75 mg/kg, baseline 435±12.9 ms, p=0.5505): not significantly changed | mean arterial pressure ([8]; IT 1.5 mg/kg, baseline 108±9.4 mmHg, p=0.9894): not significantly altered | heart rate ([8]; IT 1.5 mg/kg, baseline 118±13.2 bpm, p=0.9999): not significantly altered | PR interval ([8]; IT 1.5 mg/kg, baseline 127±2.3 ms, p=0.0819): not significantly changed | JTc interval ([8]; IT 1.5 mg/kg, baseline 364±11.5 ms, p=0.9968): not significantly changed | QTc interval ([8]; IT 1.5 mg/kg, baseline 436±7.1 ms, p=0.1510): not significantly changed | heart rate ([8]; IV 2 mg/kg, baseline 103±1.9 bpm, ANOVA p=0.9936, 30 min): not significantly altered | mean arterial pressure ([8]; IV 2 mg/kg, baseline 105±6.7 mmHg, p=0.8852): not significantly altered | PR interval ([8]; IV 2 mg/kg, baseline 127±7.8 ms, p=0.5161): not significantly changed | JTc interval ([8]; IV 2 mg/kg, baseline 367±7.4 ms, p=0.9686): not significantly changed | QTc interval ([8]; IV 2 mg/kg, baseline 442±7.9 ms, p=0.35): not significantly changed | FEF25-75, Mean ([9]; 20 mg eTLD, 24 hours Post-dose): 5.40 L/s | FEF25-75, Mean ([9]; 40 mg eTLD, 12 hours Pre-dose): 5.00 L/s | FEF25-75, Mean ([9]; 40 mg eTLD, 24 hours Post-dose): 4.80 L/s | standard lung spirometry measurements (FEV1, PEF, FVC, FEF 25-75) and peripheral O2 saturation ([9]; Cohorts 1, 2, 3 and 5): normal before and after | solubility [10]: ~30 mg/mL | Time to NSR ([11]; Animal 002, dose 0.75 (0.25 + 0.5) mg/kg): 52 s | Time to NSR ([11]; Animal 003, dose 0.75 mg/kg): 12 s | Time to NSR ([11]; Animal 004, dose 0.75 mg/kg): 23 s | Time to NSR ([11]; Animal 005, dose 0.75 mg/kg): 62 s | Time to NSR ([11]; Animal 006, dose 1.0 (0.75 + 0.25) mg/kg): 83 s | effects in BP, VR and LV dP/dtmax upon conversion, IV vs IT ([11]; IV compared with IT administration): greater effects in BP, VR and LV dP/dtmax | pH of solution in water (2.6 mg/mL): 5.0 | appearance of solution (distilled water, diltiazem hydrochloride 50 mg/ml, flecainide acetate 30 mg/ml): clear with no visible particulate matter | QRS interval duration ([12]; 30 min after completion of inhalation, Cohorts 1-3): returned to near pre-dose levels | T-wave morphology ([12]; IV infusion 2 mg/kg): T-wave notching | non-specific intraventricular conduction delay ([12]; IV infusion 2 mg/kg): 3 of 6 subjects | smaller changes in QRS interval duration, inhalation vs IV infusion ([12]; eTLD 30 mg vs ˜150 mg IV): 2.7 fold | lower plasma concentration by inhalation for QRS prolongation as after IV (6.2/2.7) ([12]; in vivo, iv): 2.3 fold | T-wave morphology ([12]; inhalation 20, 30 and 40 mg eTLD): No changes in T-wave morphology | lower plasma level after inhalation at near-equal ΔQRS ([12]; inhalation vs IV): 2.6 fold | mean ΔQRS ([12]; inhaled 20 mg eTLD, between 1 and 3 minutes after end of inhalation): small increase of mean ΔQRS | PR interval duration prolonged from start of inhalation ([12]; inhaled 30 mg eTLD, 5 min after completion of inhalation): 12 ms | QRS duration ([12]; inhaled 40 mg eTLD, Cohort 2): transient increase between 1 and 3 minutes post-dosing | changes of the PR interval duration ([12]; inhaled 20 or 40 mg eTLD): Minimal or no changes | non-specific intraventricular conduction delay ([12]; oral inhalation eTLD of 30 mg): not observed in any of the same subjects | decrease of R-wave amplitude (QRSa) ([12]; subject R222, 40 mg eTLD, 3 min post-dosing): 400 μV | increase of QRS duration (QRSd) ([12]; subject R222, inhaled 40 mg eTLD, 1 minute post-dosing): 10 ms
